How the values were obtained:
[1] = Tumor burden endpoints (PSA), Phase I study; format: in vivo, human
[2] = cited from earlier work
[3] = Cachexia markers Part I: serum albumin, pre-albumin, C-Reactive Protein, Phase I study; format: in vivo, human; conditions: for C-Reactive Protein, Change from Baseline, Mean / C-Reactive Protein, Change from Baseline, Median / C-Reactive Protein, Observed Values, Mean / C-Reactive Protein, Observed Values, Median / Pre-albumin, Change from Baseline, Mean / Pre-albumin, Change from Baseline, Median / Pre-albumin, Observed Values, Mean / Pre-albumin, Observed Values, Median / Serum Albumin, Change from Baseline, Mean / Serum Albumin, Change from Baseline, Median / Serum Albumin, Observed Values, Mean / Serum Albumin, Observed Values, Median: ITT
Text: The data for albumin, LDH and Bilirubin support claims reciting improvement in liver function by claimed treatment of a human host in need thereof. Serum LDH levels are an established strong independent negative prognostic factor, inversely related to survival in a great variety of adverse clinical conditions. In advanced refractory cancers, high LDH and low Karnofsky's performance status are among the strongest established independent negative prognostic factors of survival and quality of life (29).

[4] = Week 1 (Infusion 1), baseline, N=15

Nc1ncnc2c1ncn2[C@@H]1O[C@H](COP(=O)(O)OP(=O)(O)OP(=O)(O)O)[C@@H](O)[C@H]1O [ATP, adenosine 5′-triphosphate]
Tumor burden Endpoints: PSA Post ([1]; Patient 503, PSA Pre 4000): Post 3903
PSA compared to baseline ([1]; Patient 503, at the end of follow up): unchanged
Tumor burden Endpoints: PSA ([1]; Patient 507, increased after stopping Rx): PSA unchanged
increase in vascular diameter ([2]; blood plasma ATP about 1 microM): 8%
increase in blood flow ([2]; blood plasma ATP about 1 microM, corresponding to the increase in vascular diameter): ≥ 17%
site of vasodilation ([2]; intraluminal, physiological concentrations): not only local vasodilation, but also vasodilation at sites upstream from the site of its application
C-Reactive Protein, Change from Baseline, Mean [3, 4]: 0.0 mg/dL
C-Reactive Protein, Change from Baseline, Median [3, 4]: 0.0 mg/dL
C-Reactive Protein, Observed Values, Mean [3, 4]: 5.1 mg/dL
C-Reactive Protein, Observed Values, Median [3, 4]: 3.4 mg/dL
Pre-albumin, Change from Baseline, Mean [3, 4]: 0.0 mg/dL
Pre-albumin, Change from Baseline, Median [3, 4]: 0.0 mg/dL
Pre-albumin, Observed Values, Mean [3, 4]: 19.7 mg/dL
Pre-albumin, Observed Values, Median [3, 4]: 18.0 mg/dL
Serum Albumin, Change from Baseline, Mean [3, 4]: 0.0 g/dL
Serum Albumin, Change from Baseline, Median [3, 4]: 0.0 g/dL
Serum Albumin, Observed Values, Mean [3, 4]: 3.3 g/dL
Serum Albumin, Observed Values, Median [3, 4]: 3.4 g/dL
Pre-albumin, Change from Baseline, Mean ([3]; Week 2 (Infusion 2), N=13): -1.2 mg/dL
Pre-albumin, Change from Baseline, Median ([3]; Week 2 (Infusion 2), N=13): 0.0 mg/dL
Pre-albumin, Observed Values, Mean ([3]; Week 2 (Infusion 2), N=13): 19.4 mg/dL
Pre-albumin, Observed Values, Median ([3]; Week 2 (Infusion 2), N=13): 17.0 mg/dL
C-Reactive Protein, Change from Baseline, Mean ([3]; Week 2 (Infusion 2), N=14): 0.1 mg/dL
C-Reactive Protein, Change from Baseline, Median ([3]; Week 2 (Infusion 2), N=14): 0.5 mg/dL
C-Reactive Protein, Observed Values, Mean ([3]; Week 2 (Infusion 2), N=14): 5.0 mg/dL
C-Reactive Protein, Observed Values, Median ([3]; Week 2 (Infusion 2), N=14): 3.3 mg/dL
Serum Albumin, Change from Baseline, Mean ([3]; Week 2 (Infusion 2), N=14): -0.1 g/dL
Serum Albumin, Change from Baseline, Median ([3]; Week 2 (Infusion 2), N=14): 0.0 g/dL
Serum Albumin, Observed Values, Mean ([3]; Week 2 (Infusion 2), N=14): 3.2 g/dL
Serum Albumin, Observed Values, Median ([3]; Week 2 (Infusion 2), N=14): 3.2 g/dL
C-Reactive Protein, Change from Baseline, Mean ([3]; Week 4 (Infusion 4), N=9): 2.5 mg/dL
C-Reactive Protein, Change from Baseline, Median ([3]; Week 4 (Infusion 4), N=9): 1.6 mg/dL
C-Reactive Protein, Observed Values, Mean ([3]; Week 4 (Infusion 4), N=9): 6.6 mg/dL
C-Reactive Protein, Observed Values, Median ([3]; Week 4 (Infusion 4), N=9): 6.1 mg/dL
Pre-albumin, Change from Baseline, Mean ([3]; Week 4 (Infusion 4), N=10): -1.3 mg/dL
Pre-albumin, Change from Baseline, Median ([3]; Week 4 (Infusion 4), N=10): 0.0 mg/dL
Pre-albumin, Observed Values, Mean ([3]; Week 4 (Infusion 4), N=10): 16.5 mg/dL
Pre-albumin, Observed Values, Median ([3]; Week 4 (Infusion 4), N=10): 17.0 mg/dL
Serum Albumin, Change from Baseline, Mean ([3]; Week 4 (Infusion 4), N=11): -0.2 g/dL
Serum Albumin, Change from Baseline, Median ([3]; Week 4 (Infusion 4), N=11): -0.2 g/dL
Serum Albumin, Observed Values, Mean ([3]; Week 4 (Infusion 4), N=11): 3.2 g/dL
Serum Albumin, Observed Values, Median ([3]; Week 4 (Infusion 4), N=11): 3.0 g/dL
C-Reactive Protein, Change from Baseline, Mean ([3]; Week 6 (Infusion 6), N=8): 0.2 mg/dL
C-Reactive Protein, Change from Baseline, Median ([3]; Week 6 (Infusion 6), N=8): 0.0 mg/dL
C-Reactive Protein, Observed Values, Mean ([3]; Week 6 (Infusion 6), N=8): 4.5 mg/dL
C-Reactive Protein, Observed Values, Median ([3]; Week 6 (Infusion 6), N=8): 2.5 mg/dL
Pre-albumin, Change from Baseline, Mean ([3]; Week 6 (Infusion 6), N=8): -7.5 mg/dL
Pre-albumin, Change from Baseline, Median ([3]; Week 6 (Infusion 6), N=8): -4.5 mg/dL
Pre-albumin, Observed Values, Mean ([3]; Week 6 (Infusion 6), N=8): 16.6 mg/dL
Pre-albumin, Observed Values, Median ([3]; Week 6 (Infusion 6), N=8): 16.0 mg/dL
Serum Albumin, Change from Baseline, Mean ([3]; Week 6 (Infusion 6), N=9): -0.1 g/dL
Serum Albumin, Change from Baseline, Median ([3]; Week 6 (Infusion 6), N=9): -0.2 g/dL
Serum Albumin, Observed Values, Mean ([3]; Week 6 (Infusion 6), N=9): 3.2 g/dL
Serum Albumin, Observed Values, Median ([3]; Week 6 (Infusion 6), N=9): 3.1 g/dL
C-Reactive Protein, Change from Baseline, Mean ([3]; Week 8 (Infusion 8), N=6): 3.7 mg/dL
C-Reactive Protein, Change from Baseline, Median ([3]; Week 8 (Infusion 8), N=6): 0.0 mg/dL
C-Reactive Protein, Observed Values, Mean ([3]; Week 8 (Infusion 8), N=6): 9.0 mg/dL
C-Reactive Protein, Observed Values, Median ([3]; Week 8 (Infusion 8), N=6): 4.7 mg/dL
Pre-albumin, Change from Baseline, Mean ([3]; Week 8 (Infusion 8), N=7): -6.3 mg/dL
Pre-albumin, Change from Baseline, Median ([3]; Week 8 (Infusion 8), N=7): -4.0 mg/dL
Pre-albumin, Observed Values, Mean ([3]; Week 8 (Infusion 8), N=7): 19.6 mg/dL
Pre-albumin, Observed Values, Median ([3]; Week 8 (Infusion 8), N=7): 19.0 mg/dL
Serum Albumin, Change from Baseline, Mean ([3]; Week 8 (Infusion 8), N=7): -0.1 g/dL
Serum Albumin, Change from Baseline, Median ([3]; Week 8 (Infusion 8), N=7): -0.1 g/dL
Serum Albumin, Observed Values, Mean ([3]; Week 8 (Infusion 8), N=7): 3.3 g/dL
Serum Albumin, Observed Values, Median ([3]; Week 8 (Infusion 8), N=7): 3.4 g/dL
C-Reactive Protein, Change from Baseline, Mean ([3]; Week 10 (Follow-up), N=4): 6.0 mg/dL
C-Reactive Protein, Change from Baseline, Median ([3]; Week 10 (Follow-up), N=4): -0.7 mg/dL
C-Reactive Protein, Observed Values, Mean ([3]; Week 10 (Follow-up), N=4): 11.2 mg/dL
C-Reactive Protein, Observed Values, Median ([3]; Week 10 (Follow-up), N=4): 7.0 mg/dL
Pre-albumin, Change from Baseline, Mean ([3]; Week 10 (Follow-up), N=6): -8.3 mg/dL
Pre-albumin, Change from Baseline, Median ([3]; Week 10 (Follow-up), N=6): -1.0 mg/dL
Pre-albumin, Observed Values, Mean ([3]; Week 10 (Follow-up), N=6): 20.2 mg/dL
Pre-albumin, Observed Values, Median ([3]; Week 10 (Follow-up), N=6): 18.5 mg/dL
Serum Albumin, Change from Baseline, Mean ([3]; Week 10 (Follow-up), N=6): 0.0 g/dL
Serum Albumin, Change from Baseline, Median ([3]; Week 10 (Follow-up), N=6): -0.1 g/dL
Serum Albumin, Observed Values, Mean ([3]; Week 10 (Follow-up), N=6): 3.6 g/dL
Serum Albumin, Observed Values, Median ([3]; Week 10 (Follow-up), N=6): 3.7 g/dL
C-Reactive Protein, Change from Baseline, Mean ([3]; Week 13 (Follow-up), N=5): 5.3 mg/dL
C-Reactive Protein, Change from Baseline, Median ([3]; Week 13 (Follow-up), N=5): 0.0 mg/dL
C-Reactive Protein, Observed Values, Mean ([3]; Week 13 (Follow-up), N=5): 9.1 mg/dL
C-Reactive Protein, Observed Values, Median ([3]; Week 13 (Follow-up), N=5): 0.4 mg/dL
Pre-albumin, Change from Baseline, Mean ([3]; Week 13 (Follow-up), N=5): -8.4 mg/dL
Pre-albumin, Change from Baseline, Median ([3]; Week 13 (Follow-up), N=5): 0.0 mg/dL
Pre-albumin, Observed Values, Mean ([3]; Week 13 (Follow-up), N=5): 22.4 mg/dL
Pre-albumin, Observed Values, Median ([3]; Week 13 (Follow-up), N=5): 24.0 mg/dL
Serum Albumin, Change from Baseline, Mean ([3]; Week 13 (Follow-up), N=6): -0.0 g/dL
Serum Albumin, Change from Baseline, Median ([3]; Week 13 (Follow-up), N=6): -0.1 g/dL
Serum Albumin, Observed Values, Mean ([3]; Week 13 (Follow-up), N=6): 3.5 g/dL
Serum Albumin, Observed Values, Median ([3]; Week 13 (Follow-up), N=6): 3.5 g/dL
levels of C-Reactive Protein ([3]; after 13 weeks): continued to increase
levels of pre-albumin ([3]; after 13 weeks): decreased
serum albumin levels ([3]; after 13 weeks): stabilize and prevent a drop

Reference: patent publication US20070203091A1, “Methods and therapeutic compositions for improving liver, blood flow and skeletal muscle functions in advanced diseases and aging” (priority 2006, published 2007)
